Like-named read-outs stand apart in the source and are kept apart here.
Legend:
[1] = Dose-limiting toxicities and maximum tolerated dose; assay type: in vivo
Protocol: This open-label phase 1 study was conducted at 16 centers (ClinicalTrials.gov, NCT01723020). TP53 mutation status was confirmed by central laboratory assessment. The study was planned with two parts: a 3-part dose escalation (Part 1) and a dose expansion (Part 2). […] Intermediate doses were allowed when deemed appropriate. The dose expansion was planned for patients with MDM2-amplified tumors (group 1; liposarcomas, GBM, and other solid tumors), potentially MDM2-overexpressing tumors (group 2; ER+ metastatic breast cancer), or multiple myeloma (group 3).
Each patient was monitored for 21 days for the occurrence of dose-limiting toxicities (DLTs), defined as febrile neutropenia, neutropenic infection, grade 4 neutropenia lasting >7 days, grade ≥ 3 thrombocytopenia lasting >7 days (solid tumors only), grade 3 thrombocytopenia with grade ≥ 2 bleeding (solid tumors only), grade 3 or 4 thrombocytopenia with grade > 1 bleeding (multiple myeloma only), grade 4 thrombocytopenia (solid tumors only), or grade 4 thrombocytopenia lasting >14 days (multiple myeloma only), or as grade ≥ 3 nausea, vomiting, or diarrhea after support; grade 3 fatigue lasting >7 days; any other grade ≥ 3 adverse event (AE); grade ≥ 3 kidney injury (multiple myeloma only), or treatment-related AEs not returning to grade ≤ 1 (solid tumors only) per Common Terminology Criteria for Adverse Events (CTCAE), version 4.0. […] Treatment continued until disease progression, intolerable toxicity, or withdrawal of consent.

[2] = tested on: MDM2-amplified tumors; details: cited from earlier work
[3] = tested on: MDM2-p53 interaction; details: cited from earlier work
[4] = Plasma AMG 232 pharmacokinetics (HPLC-MS, non-compartmental analysis); assay type: in vivo, human; details: for AUC(0-t) / Cmax / Tmax / Vd/F: human, plasma, oral; for AUC(0-t): read-out: AUC24h, mean (SD); for Cmax: read-out: Cmax, mean (SD); for Tmax: read-out: tmax, median (range); for Vd/F: read-out: Vz/F, mean (SD)
Protocol: Non-compartmental analysis was performed using WinNonlin Professional software, version 6.3. Parameters were summarized descriptively.

[5] = 15 mg, Day 1, dose escalation, 15 mg (n = 3)
[6] = 15 mg, Day 7, dose escalation, 15 mg (n = 3)
[7] = 30 mg, Day 1, dose escalation, 30 mg (n = 3)
[8] = 30 mg, Day 7, dose escalation, 30 mg (n = 3)
[9] = 60 mg, Day 1, dose escalation, 60 mg (n = 2–4)
[10] = 60 mg, Day 7, dose escalation, 60 mg (n = 2–4)
[11] = 120 mg, Day 1, dose escalation, 120 mg (n = 4–7)
[12] = 120 mg, Day 7, dose escalation, 120 mg (n = 4–7)
[13] = 240 mg, Day 1, 240-mg dose expansion, DDLPS (n = 6–10)
[14] = 240 mg, Day 1, 240-mg dose expansion, ER + PR+ Breast (n = 6–8)
[15] = 240 mg, Day 1, 240-mg dose expansion, ER + PR– Breast (n = 4)
[16] = 240 mg, Day 1, 240-mg dose expansion, GBM (n = 6–9)
[17] = 240 mg, Day 1, 240-mg dose expansion, Multiple Myeloma (n = 7–10)
[18] = 240 mg, Day 1, 240-mg dose expansion, Other Solid (n = 9–16)
[19] = 240 mg, Day 1, 240-mg dose expansion, Total (n = 47–67)
[20] = 240 mg, Day 1, 240-mg dose expansion, WDLPS (n = 9–10)
[21] = 240 mg, Day 1, Parts 1 and 2, 240 mg (n = 54–75)
[22] = 240 mg, Day 1, dose escalation, 240 mg (n = 7–8)
[23] = 240 mg, Day 7, 240-mg dose expansion, DDLPS (n = 6–10)
[24] = 240 mg, Day 7, 240-mg dose expansion, ER + PR+ Breast (n = 6–8)
[25] = 240 mg, Day 7, 240-mg dose expansion, ER + PR– Breast (n = 4)
[26] = 240 mg, Day 7, 240-mg dose expansion, GBM (n = 6–9)
[27] = 240 mg, Day 7, 240-mg dose expansion, Multiple Myeloma (n = 7–10)
[28] = 240 mg, Day 7, 240-mg dose expansion, Other Solid (n = 9–16)
[29] = 240 mg, Day 7, 240-mg dose expansion, Total (n = 47–67)
[30] = 240 mg, Day 7, 240-mg dose expansion, WDLPS (n = 9–10)
[31] = 240 mg, Day 7, Parts 1 and 2, 240 mg (n = 54–75)
[32] = 240 mg, Day 7, dose escalation, 240 mg (n = 7–8)
[33] = 300 mg, Day 1, dose escalation, 300 mg (n = 3–4)
[34] = 300 mg, Day 7, dose escalation, 300 mg (n = 3–4)
[35] = 360 mg, Day 1, dose escalation, 360 mg (n = 3–4)
[36] = 360 mg, Day 7, dose escalation, 360 mg (n = 3–4)
[37] = 480 mg, Day 1, dose escalation, 480 mg (n = 5–6)
[38] = 480 mg, Day 7, dose escalation, 480 mg (n = 5–6)

In the case of `CC(C)[C@@H](CS(=O)(=O)C(C)C)N1C(=O)[C@@](C)(CC(=O)O)C[C@H](c2cccc(Cl)c2)[C@H]1c1ccc(Cl)cc1` [AMG 232], the DLT observed ([1]; 120-mg cohort, patient with esophageal cancer) is reported as “grade 3 thrombocytopenia on day 15 that worsened to grade 4 on day 17”, the “Additional patients with cytopenias (grade 4 neutropenia; grade 4 thrombocytopenia) outside of the 21-day DLT evaluation window” value ([1]; 300-mg cohort) is reported as “Two” and the DLT observed ([1]; 360-mg cohort, patient with rectal cancer) is reported as “grade 4 thrombocytopenia on day 28”. For the same compound, the DLT observed ([1]; 480-mg cohort, patient with head and neck cancer) was “grade 3 neutropenia on day 22 that delayed treatment in the next cycle”, the “highest safe and tolerable dose” value ([1]; DLTs and delayed cytopenias considered, QD 7 days Q3W) was 240 mg and the “MTD (protocol-specified definition using DLTs incidence)” value ([1]; QD for 7 days Q3W, doses up to 480 mg) was “not reached”. The “Patients with DLTs” value ([1]; dose escalation) was “Three”, the “effect of treatment in tumor xenograft models” value [2] was “tumor growth inhibition” and the “effect on MDM2-amplified tumors in xenograft models” value ([2]; through induction of growth arrest and apoptosis) was “regression”. The “affinity of blocking the MDM2-p53 interaction” value [3] was “picomolar”, the “Dose proportionality of plasma concentrations” value ([4]; 15–480 mg QD for 7 days Q3W) was “increased generally dose proportionally” and the AUC(0-t) [4, 5] was 884 ng·h/mL. For the same compound, the Cmax [4, 5] was 169 ng/mL, the Tmax [4, 5] was 3.1 h and the AUC(0-t) [4, 6] was 949 ng·h/mL. It also gave a Cmax [4, 6] of 130 ng/mL, a Vd/F [4, 6] of 497 L and a Tmax [4, 6] of 3.1 h. For the same compound, the AUC(0-t) [4, 7] was 1960 ng·h/mL, the Cmax [4, 7] was 255 ng/mL and the Tmax [4, 7] was 3 h. The AUC(0-t) [4, 8] was 2830 ng·h/mL, the Cmax [4, 8] was 259 ng/mL and the Tmax [4, 8] was 3 h. For the same compound, the AUC(0-t) [4, 9] was 2950 ng·h/mL, the Cmax [4, 9] was 527 ng/mL and the Tmax [4, 9] was 3 h. For the same compound, the AUC(0-t) [4, 10] was 4000 ng·h/mL, the Cmax [4, 10] was 457 ng/mL and the Vd/F [4, 10] was 360 L. For the same compound, the Tmax [4, 10] was 4 h, the AUC(0-t) [4, 11] was 5160 ng·h/mL and the Cmax [4, 11] was 599 ng/mL. It also gave a Tmax [4, 11] of 3 h, an AUC(0-t) [4, 12] of 8940 ng·h/mL and a Cmax [4, 12] of 868 ng/mL. For the same compound, the Vd/F [4, 12] was 664 L, the Tmax [4, 12] was 3 h and the AUC(0-t) [4, 13] was 8010 ng·h/mL. For the same compound, the Cmax [4, 13] was 986 ng/mL, the Tmax [4, 13] was 2 h and the AUC(0-t) [4, 14] was 9660 ng·h/mL. For the same compound, the Cmax [4, 14] was 1920 ng/mL, the Tmax [4, 14] was 2.8 h and the AUC(0-t) [4, 15] was 9430 ng·h/mL. For the same compound, the Cmax [4, 15] was 1360 ng/mL, the Tmax [4, 15] was 2.1 h and the AUC(0-t) [4, 16] was 5360 ng·h/mL. The Cmax [4, 16] was 978 ng/mL, the Tmax [4, 16] was 3 h and the Cmax [4, 17] was 1320 ng/mL. The Tmax [4, 17] was 2 h, the AUC(0-t) [4, 18] was 10800 ng·h/mL and the Cmax [4, 18] was 1670 ng/mL. The Tmax [4, 18] was 3 h, the AUC(0-t) [4, 19] was 8830 ng·h/mL and the Cmax [4, 19] was 1390 ng/mL. For the same compound, the Tmax [4, 19] was 3 h, the AUC(0-t) [4, 20] was 9260 ng·h/mL and the Cmax [4, 20] was 1350 ng/mL. The Tmax [4, 20] was 3.1 h, the AUC(0-t) [4, 21] was 8480 ng·h/mL and the Cmax [4, 21] was 1350 ng/mL. For the same compound, the Tmax [4, 21] was 3 h, the AUC(0-t) [4, 22] was 5690 ng·h/mL and the Cmax [4, 22] was 1030 ng/mL. For the same compound, the Tmax [4, 22] was 2 h, the AUC(0-t) [4, 23] was 10800 ng·h/mL and the Cmax [4, 23] was 1050 ng/mL. For the same compound, the Vd/F [4, 23] was 537 L, the Tmax [4, 23] was 3 h and the Cmax [4, 24] was 1350 ng/mL. It also gave a Vd/F [4, 24] of 689 L, a Tmax [4, 24] of 2.8 h and an AUC(0-t) [4, 25] of 9960 ng·h/mL. The Cmax [4, 25] was 1620 ng/mL, the Vd/F [4, 25] was 814 L and the Tmax [4, 25] was 1 h. It also gave an AUC(0-t) [4, 26] of 9210 ng·h/mL, a Cmax [4, 26] of 988 ng/mL and a Vd/F [4, 26] of 1010 L. For the same compound, the Tmax [4, 26] was 2.8 h, the AUC(0-t) [4, 27] was 8450 ng·h/mL and the Cmax [4, 27] was 1190 ng/mL. It also gave a Vd/F [4, 27] of 859 L, a Tmax [4, 27] of 1.1 h and an AUC(0-t) [4, 28] of 17200 ng·h/mL. The Cmax [4, 28] was 2200 ng/mL, the Vd/F [4, 28] was 353 L and the Tmax [4, 28] was 2.9 h. For the same compound, the AUC(0-t) [4, 29] was 12300 ng·h/mL, the Cmax [4, 29] was 1420 ng/mL and the Vd/F [4, 29] was 627 L. For the same compound, the Tmax [4, 29] was 2.8 h, the AUC(0-t) [4, 30] was 15700 ng·h/mL and the Cmax [4, 30] was 1230 ng/mL. The Vd/F [4, 30] was 389 L, the Tmax [4, 30] was 3 h and the AUC(0-t) [4, 31] was 12100 ng·h/mL. It also gave a Cmax [4, 31] of 1440 ng/mL, a Vd/F [4, 31] of 613 L and a Tmax [4, 31] of 2.9 h. The AUC(0-t) [4, 32] was 10600 ng·h/mL, the Cmax [4, 32] was 1560 ng/mL and the Vd/F [4, 32] was 523 L. For the same compound, the Tmax [4, 32] was 3 h, the AUC(0-t) [4, 33] was 14700 ng·h/mL and the Cmax [4, 33] was 1740 ng/mL. The Tmax [4, 33] was 3 h, the AUC(0-t) [4, 34] was 25000 ng·h/mL and the Cmax [4, 34] was 2090 ng/mL. For the same compound, the Vd/F [4, 34] was 762 L, the Tmax [4, 34] was 3.1 h and the AUC(0-t) [4, 35] was 15800 ng·h/mL. For the same compound, the Cmax [4, 35] was 2380 ng/mL, the Tmax [4, 35] was 2 h and the AUC(0-t) [4, 36] was 15500 ng·h/mL. For the same compound, the Cmax [4, 36] was 2050 ng/mL, the Vd/F [4, 36] was 423 L and the Tmax [4, 36] was 2 h. For the same compound, the AUC(0-t) [4, 37] was 18800 ng·h/mL, the Cmax [4, 37] was 2630 ng/mL and the Tmax [4, 37] was 3 h. The AUC(0-t) [4, 38] was 18400 ng·h/mL, the Cmax [4, 38] was 1750 ng/mL and the Vd/F [4, 38] was 585 L. It also gave a Tmax [4, 38] of 3.1 h and a Vd/F ([4]; Day 7, Parts 1 and 2, All Doses (n = 76–97)) of 615 L.

— paper PMC7211202 (Investigational New Drugs, 2019)
